Data: US20040126369A1, “Delivery of peroxide-generating enzymes to the vaginal tract” (priority 2002, published 2004)

Assays:
Assay type in all cases: biochemical
[1] = Hydrogen peroxide generation by enzymes on substrates; details: for μg of H2O2 produced/ml: one unit enzyme, pH 6.3, 37° C., 12 h
Procedure: Seven enzymes, including glucose oxidase, glycerol-3-phosphate oxidase, xanthine oxidase, cholesterol oxidase, galactose oxidase, alcohol oxidase and pyruvate oxidase, were tested for hydrogen peroxide generation on five substrates, including tampon material (e.g., cellulosic materials, including, but not limited to, cotton and rayon fibers), polydextran, carboxymethylcellulose, chitosan, and poly (vinyl alcohol).
One unit of each enzyme was combined with 0.05 ml of a saturated solution (in distilled, deionized water) of each substrate in a test tube and diluted to 0.5 ml with buffer (0.5 M Tris buffer, pH adjusted to 6.3). In the case of insoluble substrates, a piece (approximately 0.25 g) of the substrate was placed in the test tube. The tubes were placed in an oscillating incubator at 37° C. After 12 h, the tubes were removed and the solution was assayed for H2O2 level by an established method (Graf, E. and Penniston, J. T., “Method for Determination of Hydrogen Peroxide, With Its Application Illustrated by Glucose Assay,” Clinical Chemistry, 26, 658-660 (1980)). The results are depicted in Table 2 in μg H2O2 per ml. (For production of hydrogen peroxide over time, see FIG. 1.)

[2] = H2O2 production by alcohol oxidase on modified pva/polycap polymer versus unmodified poly (vinyl alcohol); details: direct comparison (data not shown)
[3] = Self-limiting features of peroxide generation, alcohol oxidase-carboxymethylcellulose; details: carboxymethylcellulose substrate, 37° C.
Procedure: FIG. 4 is a graphical representation of the effect of pH on hydrogen peroxide production. Depicted is hydrogen peroxide production resulting from alcohol oxidase activity with carboxymethylcellulose as a function of pH (with no initial peroxide added, after agitation for 8 hours at 37° C. in normal atmosphere).
FIG. 5 is a graphical representation of the effect of initial hydrogen peroxide (H2O2) on H2O2 production. Depicted is hydrogen peroxide production resulting from alcohol oxidase activity with carboxymethylcellulose as a function of initial hydrogen peroxide added (at pH 6.3, after agitation for 8 hours at 37° C. in normal atmosphere).
One of the enzyme-substrate combinations, alcohol oxidase-carboxymethylcellulose, was further studied. One unit of enzyme was combined with 0.05 ml of 2.5% carboxymethyl cellulose in a test tube and diluted to 0.5 ml with buffer of appropriate pH. The tubes were placed in an oscillating incubator at 37° C. After 8 hours, the tubes were removed and the solution was assayed for H2O2 level.

[4] = substrate Tampon Material (cotton)

Row | Substance | level of H2O2 production compared with the other enzymes ([1]; across the five substrates of Table 2) | μg of H2O2 produced/ml ([1]; substrate CM Cellulose) [μg H2O2 per ml] | μg of H2O2 produced/ml ([1]; substrate Chitosan) [μg H2O2 per ml] | μg of H2O2 produced/ml ([1]; substrate Poly(vinyl alcohol)) [μg H2O2 per ml] | μg of H2O2 produced/ml ([1]; substrate Polydextran) [μg H2O2 per ml] | μg of H2O2 produced/ml [1, 4] [μg H2O2 per ml] | more H2O2 produced on modified pva/polycap polymer than on unmodified poly (vinyl alcohol) [2] [%] | enzyme activity as a function of pH ([3]; 8 hours, FIG. 4) | hydrogen peroxide production at pH 6.3 ([3]; pH 6.3, 8 hours) | effect of initial hydrogen peroxide on enzyme activity ([3]; pH 6.3, 8 hours, FIG. 5)
1 | alcohol oxidase | highest level of H2O2 production on most of the substrates | 103.96 | 9.38 | 53.20 | 92.89 | 97.84 | 22 | decreased with decreasing pH | high levels of hydrogen peroxide | deactivated in the presence of high concentrations of hydrogen peroxide
2 | cholesterol oxidase |  | 4.01 | 14.09 | 5.13 | 3.89 | 4.92 |  |  |  | 
3 | galactose oxidase |  | 4.43 | 8.06 | 4.34 | 3.89 | 6.45 |  |  |  | 
4 | glucose oxidase |  | 3.31 | 10.66 | 4.47 | 54.69 | 4.43 |  |  |  | 
5 | glycerol-3-phosphate oxidase |  | 3.97 | 9.01 | 3.85 | 4.01 | 4.84 |  |  |  | 
6 | pyruvate oxidase |  | 9.84 | 11.94 | 3.85 | 9.75 | 6.66 |  |  |  | 
7 | xanthine oxidase |  | 6.08 | 10.00 | 6.00 | 5.96 | 10.46 |  |  |  | 
